Source: patent US20220354835A1, “COMPOUNDS FOR DEGRADING TAU PROTEIN AGGREGATES AND USES THEREOF” (Aprinoia Therapeutics Limited, priority 2019, published 2022)

Columns and labels:
[1] = target: T1, heparin-induced aggregated tau (aTau), full-length 2N4R human Tau (Homo sapiens, UniProt P10636); experiment: In vitro fluorometric aTau binding assay; conditions: 0.04 μM aTau, serially diluted compound 10 to 0.00017 μM, 37° C. 1 hour, fluorescence
T1 construct: transformed with a full-length 2N4R tau expression plasmid; made in house; host or cells: E. coli BL21
T1 sequence (P10636 1-441 isoform P10636-8): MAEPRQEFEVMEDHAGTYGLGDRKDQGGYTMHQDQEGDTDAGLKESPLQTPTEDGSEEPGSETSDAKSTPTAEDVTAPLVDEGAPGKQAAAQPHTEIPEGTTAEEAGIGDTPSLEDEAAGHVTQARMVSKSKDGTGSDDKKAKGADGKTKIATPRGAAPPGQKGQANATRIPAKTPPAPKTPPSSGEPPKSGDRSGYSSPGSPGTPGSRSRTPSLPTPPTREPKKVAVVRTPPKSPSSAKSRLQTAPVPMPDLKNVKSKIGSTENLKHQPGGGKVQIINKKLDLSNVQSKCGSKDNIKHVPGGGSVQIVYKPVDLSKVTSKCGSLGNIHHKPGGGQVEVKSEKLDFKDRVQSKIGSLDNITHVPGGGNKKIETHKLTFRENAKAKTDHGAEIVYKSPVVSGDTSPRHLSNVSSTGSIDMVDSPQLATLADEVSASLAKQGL
Protocol: (§1) (A) Expression and purification of human Tau: 1 mM IPTG (Sangon Biotech, Cat. No A100487) was used to induce production of tau by bacteria (BL21, Invitrogen, Cat. No C600003) transformed with a full-length 2N4R tau expression plasmid. After 3 hours, cell pellet was resuspended in lysis buffer (100 mM PIPES, 1 mM EGTA, 1 mM MgSO4, pH 6.8) and lysed by sonication followed by centrifugation (15,000 rpm, 15 min, 4° C.). The supernatant was then placed in a boiling water bath for 20 min, followed by centrifugation (15,000 rpm, 15 min, 4° C.). Supernatant was loaded onto a Q-Sepharose® Fast Flow column (GE healthcare, Cat. No 17-0510-01), the flow-through fraction was loaded onto an SP-Sepharose® Fast Flow column (GE healthcare, Cat. No 17-0729-01), and tau protein was eluted with elution buffer (100 mM PIPES, 1 M NaCl, 1 mM EGTA, 1 mM MgSO4, 0.2 M NaCl, pH 6.8). Collected fractions of tau-containing eluates were pooled, concentrated and dialyzed against HEPES buffer (25 mM HEPES, 0.1 mM EDTA, 0.5 mM DTT, 100 mM NaCl, pH 7.2) and stored at −80° C. in small aliquots until use. Protein concentration was determined by UV absorption.
(§2) (B) Preparation of heparin-induced aggregated tau (aTau): 2 μM of tau prepared in 30 mM Tris-HCl, pH 7.5 buffer was incubated in tube with 15 μM heparin (Sigma, Cat. No H3149) at 37° C. for 24 hours.
(D) In vitro fluorometric aTau binding assays: 2 μM aTau was diluted to 0.04 μM with 30 mM Tris-HCl (pH 6.8), and then incubated with serially diluted compound (three-fold serial dilutions, from 10 to 0.00017 μM) in a 96-well plate (Corning, Cat. No 3573) at 37° C. for 1 hour. Fluorescence intensity (excitation/emission=370/500 nm) of APN-0729 was read by microplate spectrometer (EnSpire 2300, PerkinElmer). Compound Kd values were calculated using the following equation: Y=Bmax* X (Kd+X), where X is the concentration of compound; Y is the fluorescence signal of (compound+aTau)−(compound+DMSO); and Bmax is the maximum signal.

[2] = target: T1, heparin-induced aggregated tau (aTau), full-length 2N4R human Tau; experiment: PBB5 competition assay; type: binding; conditions: 0.12 μM aTau; for IC50: 0.1 μM PBB5, 37° C. 1 hour, PBB5 fluorescence 530/690 nm; for Emax: 0.1 μM PBB5, compound up to 10 μM, read-out: Competition Assay with PBB5: Bmax (%)
Protocol: as §1, §2
(E) PBBS competition assay: 2 μM of aTau was diluted to 0.12 μM by […] (pH 6.8) and then incubated with 0.1 μM 2-(4-(2-(methylamino)pyridine-5-yl)-1,3-butadiene-1-yl)benzothiazole-6-ol (PBB5) and serially diluted compound (three-fold serial dilution, from 10 to 0.00017 μM) in a 96-well plate (Corning, Cat. No 3573) at 37° C. for 1 hour. Fluorescence intensity (excitation/emission=530/690 nm) of PBB5 was read by microplate spectrometer (EnSpire 2300, PerkinElmer). Percentage of competition was calculated using the following equation: (Max−well of compound alone)/(Max−Min)*100%, where Max=(Tau+PBB5) signals−(buffer+PBB5) signals; and Min=(buffer+PBB5) signals−(buffer+PBB5) signals.
The IC50 value of each compound was calculated with GraphPad Prism software using the “4 Parameter Logistic Model or Sigmoidal Dose-Response Model”:
Y=Bottom+(Top−Bottom)/(1+(IC50/×)^HillSlope)

[3] = target: T2, Tau aggregates in P301L-Tau-FL-GFP HEK293 cells (Homo sapiens, UniProt P10636, P618L); experiment: Tau degradation assay (APNmAb005 ELISA-based Tau aggregation assay); type: cell-based; conditions: 1 μM of compound, 24 hours, P301L-Tau-FL-GFP HEK293 cells seeded with rTg4510 brain lysate; read-out: Activity (reduction of tau aggregates)
T2 construct: express full-length human tau T40 (2N4R) carrying the P301L mutation with a GFP tag; expressed in transfected cells
T2 sequence (P10636 1-441 isoform P10636-8 P301L): as the sequence (P10636 1-441 isoform P10636-8) above, with P301L counted along it
Protocol: (A). Cell-based model of Tau inclusion formation: Six month old rTg4510 mouse brain lysates were used as the source of tau seeds, prepared as described in Example 26 above. P301L-Tau-FL-GFP HEK293 cells represent HEK293 cells express full-length human tau T40 (2N4R) carrying the P301L mutation with a GFP tag (P301L-Tau-FL-GFP). 1×10^6 of P301L-Tau-FL-GFP HEK293 cells were cultured on a 6-well plate in culture medium containing DMEM/F-12 (Gibco) supplemented with 10% fetal bovine serum (FBS) (Gibco), 1% Penicillin-Streptomycin (Gibco) and 0.5 mg/ml geneticin (Thermo Fisher Scientific) for 24 hours to reach 70-90% confluency, indicating the cells were ready for transfection. 50 μg of 6-month-old rTg4510 mouse brain lysate was diluted in 400 μL of serum free medium and mixed with 16 μL of lipofectamine 3000 reagent (Thermo Fisher Scientific) diluted in 400 μl of serum free medium. A solution mixture of rTg4510 brain lysate and lipofectamine 3000 was incubated at room temperature for 25 min. The culture media were removed, and then a solution mixture of rTg4510 lysate and lipofectamine 3000 was added to the cells for transfection. The solution mixture was incubated at room temperature for five hours, followed by medium change to 10% fetal bovine serum (FBS). After two-day incubation, Tau aggregates (Tau spots) were induced and images were acquired by ImageXpress Micro Confocal high-content imaging system (Molecular Devices) as described in Example 52 above. Analysis was performed by two customized modules in MetaXpress software (Molecular Devices) for aggregated tau analysis. Output included cell numbers, numbers of tau spots, average intensity of tau spots, and average size of tau spots.
(B). Compound treatment: 100 μL of 3×10^4 cells comprising Tau aggregates, prepared as described above in step (A), were plated on a 96-well plate coated with poly-D-lysine (BD Biosciences) and cultured for 24 hours. Compounds to be tested were dissolved in culture medium containing 0.1% DMSO. Each of test compounds in the concentration of 1, 0.2 and 0.04 μM was added to the cells comprising Tau aggregates and incubated at 37° C. for 24 hours. After that, culture medium was removed, cells were washed with PBS solution and then lysed using 30 μL of lysis buffer (PBS containing 0.3% Triton X-100 and 400 mM NaCl) for one hour at 4° C., and then cell lysate was diluted by 170 μl of PBS containing 400 mM NaCl. Cell lysate was filtrated by a […] filtration plate (Pall) and applied for Tau aggregation assay.
(C). Control cell lysate: control cell lysate was collected from non-seeded cells.
(D). ELISA-based Tau aggregation assay: APNmAb005 ELISA kit for Tau aggregation assay was designed and developed to detect abnormal tau aggregates in buffered solution or cell lysate by using anti-Tau APNmab005 as capture and detection antibody. This antibody is a highly specific antibody bound to human tau aggregates accumulated in mammalian cells. APNmAb005 is recited in PCT Patent Application No. PCT/M2020/057415, filed Aug. 5, 2020, which is incorporated herein by reference.
0.15 μg of APNmAb005 in 100 mM sodium carbonate buffer (pH 9.6) was coated on a high-binding polystyrene 96-well microplate (Greiner Bio-One) at 4° C. overnight. The microplate was washed with PBS followed by treatment with Intercept (PBS) blocking buffer (LI-COR) at room temperature for 2 hours. After that, the microplate was washed with PBS, and then the cell lysate with compound treatment, prepared as described above in step (C), was added into each well of the microplate and incubated at room temperature for 2 hours. The microplate was washed with PBS and then incubated with HRP-conjugated secondary antibody APNmAb005 at room temperature for 3 hours. HRP-conjugated secondary antibody APNmAb005 was prepared using HRP conjugation kit (Abcam,ab102890). The microplate was then washed with PBS and incubated with 100 μL of horseradish peroxidase (HRP) substrate at room temperature. […]

CN(C)c1ccc(-c2ccc(-c3nc4ccc(NCCOCCOCCOCCOCCOCCOc5ccc6c(c5)C(=O)N(C5CCC(=O)NC5=O)C6=O)cc4s3)cc2)cn1 (centres unmarked) [Compound 159985, 2-[2,6-bis(oxo)piperidin-3-yl]-5-[2-[2-[2-[2-[2-[2-[[2-[4-[6-(dimethylamino)-pyridin-3-yl]phenyl]-1,3-benzothiazol-6-yl]amino]ethoxy]ethoxy]ethoxy]ethoxy]ethoxy]-ethoxy]isoindole-1,3-dione] showed a Kd [1] of 100 nM, an IC50 [2] of 320 nM and an Emax [2] of 71%. The inhibition at 1 µM [3] was under 10%.

Work on CN(C)c1ccc(-c2ccc(-c3nc4ccc(NCCOCCOc5ccc6c(c5)C(=O)N(C5CCC(=O)NC5=O)C6=O)cc4s3)cc2)cn1 (centres unmarked) [Compound 160219, 2-[2,6-bis(oxo)piperidin-3-yl]-5-[2-[2-[[2-[4-[6-(dimethylamino)pyridin-3-yl]phenyl]-1,3-benzothiazol-6-yl]amino]ethoxy]ethoxy]isoindole-1,3-dione] yielded a Kd [1] of 110 nM, an IC50 [2] of 150 nM and an Emax [2] of 69%. It also gave an inhibition at 1 µM [3] of under 10%.

For CN(C)c1ccc(-c2ccc(-c3nc4ccc(NCCOCCOCCOCCOCCOCCOc5ccc6c(c5)CN(C5CCC(=O)NC5=O)C6=O)cc4s3)cc2)cn1 (centres unmarked) [Compound 160273, 3-[6-[2-[2-[2-[2-[2-[2-[[2-[4-[6-(dimethylamino)pyridin-3-yl]phenyl]-1,3-benzothiazol-6-yl]amino]ethoxy]ethoxy]ethoxy]ethoxy]ethoxy]ethoxy]-3-oxidanylidene-1H-isoindol-2-yl]piperidine-2,6-dione], the Kd [1] was 470 nM, the IC50 [2] was 270 nM and the Emax [2] was 59%. It also gave an inhibition at 1 µM [3] of under 10%.

CN(C)c1ccc2nc(-c3ccc(-c4ccc(NCCOCCOCCOCCOCCOCCOc5ccc6c(c5)CN(C5CCC(=O)NC5=O)C6=O)nc4)cc3)sc2c1 (centres unmarked) [Compound 160383, 3-[6-[2-[2-[2-[2-[2-[2-[[5-[4-[6-(dimethylamino)-1,3-benzothiazol-2-yl]-phenyl]pyridin-2-yl]amino]ethoxy]ethoxy]ethoxy]ethoxy]-ethoxy]ethoxy]-3-oxo-1H-isoindol-2-yl]piperidine-2,6-dione] showed a Kd [1] of 550 nM, an IC50 [2] of 270 nM and an Emax [2] of 80%. For the same molecule, the inhibition at 1 µM [3] was under 10%.

CN(C)c1ccc(-c2ccc(-c3cn4cc(OCCOCCOCCOCCOCCOCCOc5ccc6c(c5)C(=O)N(C5CCC(=O)NC5=O)C6=O)ccc4n3)cc2)c(F)n1 (centres unmarked) [Compound 160744, 2-[2,6-bis(oxo)piperidin-3-yl]-5-[2-[2-[2-[2-[2-[2-[2-[4-[6-(dimethyl-amino)-2-fluoro-pyridin-3-yl]phenyl]imidazo[1,2-a]pyridin-6-yl]oxyethoxy]ethoxy]ethoxy]-ethoxy]ethoxy]ethoxy]isoindole-1,3-dione] gave a Kd [1] of 150 nM, an IC50 [2] of 5960 nM and an Emax [2] of 113%. The inhibition at 1 µM [3] was 10 to 20%.
